Experimental data published in US20250034105A1, “IS[…] N-METHYL-1,3-BENZODIOXOLYLBUTANAMINE (MBDB) AND STEREOISOMERS THEREOF” (Terran Biosciences Inc., priority 2021, published 2025).

Experiments:
[1] = cited from earlier work
[2] = test system: participants diagnosed with at least moderate post-traumatic stress disorder (PTSD); assay: Double-blind, randomized, placebo-controlled clinical trial of MBDB-assisted psychotherapy in PTSD; assay type: in vivo, human; settings: results that "may" be observed; for change in CAPS-5 assessment compared to the placebo group: at Study Conclusion
Method: A multicenter, randomized, double-blind, placebo-controlled trial is conducted to assess the efficacy and safety of MBDB-assisted psychotherapy versus psychotherapy with placebo control in participants diagnosed with at least moderate post-traumatic stress disorder (PTSD). Rationale
This multicenter, randomized, double-blind, placebo-controlled trial is conducted at various sites in the United States with IRB approval from each study site. A flexible dose of MBDB hydrochloride salt or placebo, followed by a supplemental half-dose unless contraindicated by patient's previous response or medical history, is also administered during the Treatment Period with psychotherapy in at least 3 blinded monthly Experimental Sessions. The Supplemental Dose extends the duration of drug effects on the participants during an Experimental Session. MBDB test groups are further subdivided into specific groups receiving only racemic MBDB hydrochloride salt, S-MBDB hydrochloride salt, or R-MBDB hydrochloride salt. An optional Risk Evaluation and Mitigation Strategy (REMS) Protocol may be implemented for the racemic MBDB, S-MBDB, R-MBDB, and placebo-groups. The Treatment Period lasts for approximately 12 weeks. During the Treatment Period, each Experimental Session is followed by three Intervening Sessions of non-drug psychotherapy. Each Experimental Session involves an overnight stay. The Primary Outcome measure, the change in Clinician Administered PTSD Scale for DSM-5 (CAPS-5), is determined by a blinded Independent Rater (IR) pool multiple times throughout the study. The study consists of separate periods for each participant. Initially, prospective participants undergo a Screening Period involving an initial eligibility assessment, a medical history intake, informed consent, and enrollment of eligible participants. Next, a Preparation Period is undertaken for enrolled participants involving medication tapering and clinical baseline assessments to confirm each participant meets enrollment criteria. As part of the Preparation Period, a detailed assessment of co-morbidities to PTSD is recorded. Participants may remain on prescribed courses of selective serotonin reuptake inhibitor (SSRI) or serotonin and norepinephrine reuptake inhibitor (SNRI) treatment. Dosages and/or frequency of administration of a prescribed SSRI or SNRI may be adjusted to fit within study parameters. Participants may be required to taper a prescribed course of medication in order to maintain eligibility within the study. The Treatment Period consists of three monthly Experimental Sessions and associated Intervening Sessions of integrative behavioral psychotherapy. The Treatment Period lasts approximately 12 weeks. Following the Treatment Period is a Follow-up Period and Study Conclusion. During the Follow-up Period and Study Conclusion, participants complete 4 weeks with no study visits, followed by a Study Conclusion visit.
This study compares the effects of three blinded Experimental Sessions of psychotherapy in combination with flexible doses of MBDB or placebo administered as described below. Non-drug preparatory and intervening psychotherapy sessions are also included. Patient's weight is determined for dosage calculation. Initial dose is 180 mg unless this will result in a dosage of less than 1.5 mg/kg of patient weight. Initial dose thereby adjusted upward in 50 mg increments to deliver the lowest dose possible of at least 1.5 mg/kg of patient weight. Initial dose for Experimental Session 2 and 3 is cumulative dose calculated by adding the initial dose plus REMS protocol dose used the previous Experimental Session for each patient.
The primary objective of this study is to evaluate the efficacy and safety of MBDB treatment combined with psychotherapy to treat moderate to severe PTSD compared to identical psychotherapy combined with placebo treatment. […]

Male Sprague-Dawley rats = assay: Rat elevated zero maze model of anxiety; assay type: in vivo; settings: for frequency of stretched attend postures (SAPs): 30 min before 5-min test; for dose at which switch to an anxiolytic effect was shown (magnitude of reduction in SAPs): ip, rat zero maze
Text: The rat zero-maze model is a refined alternative to the plus-maze, the most widely used animal model of anxiety, and consists of an elevated annular platform, divided equally into four quadrants. Two opposite quadrants are enclosed by Perspex walls on both the inner and the outer edges of the platform, while the remaining two opposite quadrants are open being enclosed only by a Perspex “lip”. Animals will show a preference for the closed areas, and avoidance of the open sections is assumed to stem from a rodent's natural aversion to open, exposed spaces. A reduction in the amount of activity on the open areas is considered to reflect an increase in anxiety. The ethologically-based behavior stretched attend postures (SAP) from closed to open quadrants is assessed as an index of anxiety. Increase in SAPs is indicative of an anxiogenic effect and decreases in SAPs is indicative of an anxiolytic effect. Shepherd, J K; Grewel, S S; Fletcher, A; Bill, D J; Dourish, C T (1994) Behavioural and pharmacological validation of the elevated “zero-maze” as an animal model of anxiety. Psychopharmacol., 116:56-64.
Male Sprague-Dawley 200-250 g (Envigo UK) rats were used. Animals were group-housed (5 per cage; cage size: 40×40×20 cm) in a temperature-controlled environment (22±2° C.), under a 12 h light-dark cycle (lights on: 08:00 hours) for one week prior to testing. Food and water were freely available. Number of animals per group=5. Animals were moved into the experimental room 16-24 hours before testing.
The elevated 0-maze comprises a black Perspex annular platform (105 cm diameter, 10 cm width) elevated to 65 cm above ground level, divided equally into four quadrants. Two opposite quadrants are enclosed by clear red Perspex walls (27 cm high) on both the inner and outer edges of the platform, while the remaining two opposite quadrants are surrounded only by a Perspex “lip” (1 cm high) which serves as a tactile guide to animals on these open areas.
Subjects were weighed and tail marked before being injected. After a specified pre-treatment time, subjects were placed in a closed quadrant and a 5-min test period were recorded on videotape for subsequent analysis. The maze was cleaned with 5% methanol/water solution and dried thoroughly between test sessions. Behavioural measures comprise percentage time spent on the open areas (% TO) and frequency of stretched attend postures (SAP) from closed to open quadrants. Since the control groups were all treated identically with the same vehicle these were combined to increase power. The Chlordiazepoxide groups were also treated identically with the same dose so these were also combined to increase power. Animals are scored as being in the open area when all four paws were in an open quadrant and in the closed area only when all four paws have passed over the open-closed divide. All testing were carried out between 9.00 and 16.00 hours.
Chlordiazepoxide was formulated in Vehicle 1 (saline) to a concentration of 1.2 mg/mL to provide a dose of 6 mg/kg when administered ip in 5 mL/kg dosing volumes.
35 male Sprague-Dawley rats in treatment groups of 5, were intraperitoneally dosed with either Vehicle 1 (saline) or Rac-MBDB at 1 of 5 dose levels (2.5, 5, 10, 15 & 30 mg/kg) or chlordiazepoxide (6 mg/kg) in 5 mL/kg injection volumes. Thirty min later at T-0, rats were individually placed in a closed arm of the zero-maze and behavior assessed by a “blind” observer using remote video monitoring over the subsequent 5 min. The animals were then removed and the maze carefully wiped with 5% methanol/water solution before the next test was begun.
35 male Sprague-Dawley rats in treatment groups of 5, were intraperitoneally dosed with either Vehicle 1 (saline) or R-MBDB at 1 of 5 dose levels (2.5, 5, 10, 15 & 30 mg/kg) or chlordiazepoxide (6 mg/kg) in 5 mL/kg injection volumes. […]

Row | Structure (SMILES) | Coming Down, time after dose ([1]; adapted from PiHKAL 1991) [min] | Oral MBDB dose, drug activity level Very Strong ([1]; oral) [mg] | change in CAPS-5 assessment compared to the placebo group [2] | clinician-rated functional impairment score as measured by SDS compared to placebo-treated controls [2] | daytime sleepiness as measured by ESS [2] | depression as measured by HAM-D compared to placebo-treated controls [2] | frequency of stretched attend postures (SAPs) (Male Sprague-Dawley rats; 5 mg/kg ip, vs vehicle) | frequency of stretched attend postures (SAPs) (Male Sprague-Dawley rats; 10 mg/kg ip) | frequency of stretched attend postures (SAPs) (Male Sprague-Dawley rats; 15 mg/kg ip) | frequency of stretched attend postures (SAPs) (Male Sprague-Dawley rats; 30 mg/kg ip, vs vehicle) | frequency of stretched attend postures (SAPs) (Male Sprague-Dawley rats; 30 mg/kg ip, vs vehicle, listed as S MBDB) | dose at which switch to an anxiolytic effect was shown (magnitude of reduction in SAPs) (Male Sprague-Dawley rats) [mg/kg] | frequency of stretched attend postures (SAPs) (Male Sprague-Dawley rats; 30 mg/kg ip, vs vehicle, listed as R MBDB)
1 | CCC(Cc1ccc2c(c1)OCO2)NC (stereo not drawn) [MBDB, 1-(benzo[d][1,3]dioxol-5-yl)-N-methylbutan-2-amine] | ~90 | ≥350 |  |  |  |  |  |  |  |  |  |  | 
2 | CC[C@@H](Cc1ccc2c(c1)OCO2)NC [S-MBDB] |  |  | significant mean reduction | significant improvement | significant improvement | significant improvement | reached significance | showed a rapid reduction in total SAPs | showed a reduction in the number of SAPs compared to lower doses | decreased the frequency of SAPs as effectively as the benzodiazepine chlordiazepoxide | significantly reduced the number of SAPs | 10 | 
3 | CC[C@H](Cc1ccc2c(c1)OCO2)NC [R-MBDB] |  |  | significant mean reduction | significant improvement | significant improvement | significant improvement |  | produced a consistent level of SAPs similar to the 5 mg/kg | showed a reduction in the number of SAPs compared to lower doses | decreased the frequency of SAPs as effectively as the benzodiazepine chlordiazepoxide |  | 15 | significantly reduced the number of SAPs
